Laboratory results from patent US11739077B2, “Small molecule inhibitors of ubiquitin specific protease 1 (USP1) and uses thereof” (Insilico Medicine IP Limited, priority 2021, dated 2023).
Values belong to the compound of their own block, whether it stands above or below them.

Experiments:
[1] = biological target: Human recombinant USP1/UAF1 (Homo sapiens (Human), UniProt O94782); assay: Enzymatic assay, USP1/UAF1 with Ubiquitin Rhodamine 110; format: biochemical; settings: 2 nM USP1/UAF1, 500 nM Ubiquitin Rhodamine 110, 15 minutes preincubation at RT
Protocol: Human recombinant USP1/UAF1 expressed in baculovirus infected Sf21 cells were used (R&D, E-568-050). Test compound and/or vehicle was incubated with 2 nM of USP1/UAF1 in modified HEPES buffer pH 8.0 for 15 minutes at RT. The reaction was initiated by addition of 500 nM of Ubiquitin Rhodamine 110 (R&D, U-555-050) for kinetic reading. Slope change of fluorescence intensity was read spectrofluorimetrically at 485 nm/535 nm.

MDA-MB-436 cells = assay: MDA-MB-436 breast cancer cell proliferation assay (CellTiter-Glo); format: cell-based; settings: 7 days
Protocol: MDA-MB-436 cells were grown in Leibovitz's L-15 medium with 10 ug/ml insulin, 16 ug/ml glutathione, 10% FBS. Cells were passaged at subconfluence after trypsinization and maintained in incubators at 37° C. in a humidified atmosphere with 5% CO2.
Cell proliferation was determined using CellTiter-Glo® Luminescent Cell Viability Assay (Promega, #G7573). MDA-MB-436 cells were seeded in 384-well plates and allowed to attach for 24 h. Compounds were added into 384-well plate by ECHO, and incubated at 37° C. in a humidified atmosphere with 5% CO2. After 7 days, CellTiter-Glo was added into 384 well plates, contents were mixed on an orbital shaker at […] for 2 min before centrifuging the plate for 2 min at 1000 rpm. After incubation at RT for 30 min, luminescence was read on envision.

Human recombinant USP1/UAF1, sequence (O94782 whole entry): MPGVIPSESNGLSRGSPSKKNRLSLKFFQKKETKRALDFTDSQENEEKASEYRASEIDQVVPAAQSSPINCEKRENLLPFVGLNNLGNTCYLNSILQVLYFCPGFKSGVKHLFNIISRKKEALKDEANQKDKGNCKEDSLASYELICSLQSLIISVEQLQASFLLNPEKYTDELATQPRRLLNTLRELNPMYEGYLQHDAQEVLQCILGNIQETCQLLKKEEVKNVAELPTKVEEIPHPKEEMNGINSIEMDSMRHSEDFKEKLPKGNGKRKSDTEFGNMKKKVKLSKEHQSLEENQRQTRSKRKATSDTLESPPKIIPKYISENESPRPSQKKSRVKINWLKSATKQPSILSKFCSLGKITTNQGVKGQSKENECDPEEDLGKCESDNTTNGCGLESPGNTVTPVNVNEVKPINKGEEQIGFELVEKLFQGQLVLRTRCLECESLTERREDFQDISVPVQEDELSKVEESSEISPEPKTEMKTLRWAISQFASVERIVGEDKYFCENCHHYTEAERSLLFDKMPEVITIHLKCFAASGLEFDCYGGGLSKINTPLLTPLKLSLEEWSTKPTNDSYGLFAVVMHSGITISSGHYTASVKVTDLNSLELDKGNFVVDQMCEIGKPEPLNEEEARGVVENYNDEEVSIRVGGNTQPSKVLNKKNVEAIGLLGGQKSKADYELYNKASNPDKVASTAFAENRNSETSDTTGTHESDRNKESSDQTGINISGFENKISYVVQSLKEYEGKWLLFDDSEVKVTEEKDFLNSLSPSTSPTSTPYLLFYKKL
Human recombinant USP1/UAF1, sequence (Q8TAF3 whole entry partner): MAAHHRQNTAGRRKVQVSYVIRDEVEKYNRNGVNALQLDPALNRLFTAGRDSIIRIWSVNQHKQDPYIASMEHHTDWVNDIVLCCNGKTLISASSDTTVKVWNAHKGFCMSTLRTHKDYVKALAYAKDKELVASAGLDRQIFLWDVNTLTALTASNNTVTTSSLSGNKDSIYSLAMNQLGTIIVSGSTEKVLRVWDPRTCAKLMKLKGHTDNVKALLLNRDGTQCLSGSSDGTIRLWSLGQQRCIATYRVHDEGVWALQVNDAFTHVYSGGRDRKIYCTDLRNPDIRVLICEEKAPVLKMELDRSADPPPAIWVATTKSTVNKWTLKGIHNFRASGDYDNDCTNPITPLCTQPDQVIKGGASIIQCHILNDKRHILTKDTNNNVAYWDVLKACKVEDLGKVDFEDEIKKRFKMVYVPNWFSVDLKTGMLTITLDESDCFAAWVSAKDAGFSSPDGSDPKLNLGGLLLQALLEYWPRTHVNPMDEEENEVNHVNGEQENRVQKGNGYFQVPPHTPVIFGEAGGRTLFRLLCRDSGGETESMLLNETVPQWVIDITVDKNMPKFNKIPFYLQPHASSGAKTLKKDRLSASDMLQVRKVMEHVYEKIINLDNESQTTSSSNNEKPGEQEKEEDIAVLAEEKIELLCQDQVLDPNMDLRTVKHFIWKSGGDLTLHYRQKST

IC50 [1]: < 50 nM
IC50 (MDA-MB-436 cells; Homo sapiens, 168 h): < 50 nM
SMILES: COc1ncnc(C2CC2)c1-c1nn(C)c2c1CN(c1ccc(-c3nc(C(F)(F)F)cn3C)cn1)CC2 [Example 5, 3-(4-cyclopropyl-6-methoxypyrimidin-5-yl)-1-methyl-5-(5-(1-methyl-4-(trifluoromethyl)-1H-imidazol-2-yl)pyridin-2-yl)-4,5,6,7-tetrahydro-1H-pyrazolo[4,3-c]pyridine]

SMILES: COc1ncnc(C2CC2)c1-c1n[nH]c2c1CN(c1ccc(-c3nc(C(F)(F)F)cn3C(C)C)cn1)CC2 [Example 20, 3-(4-cyclopropyl-6-methoxypyrimidin-5-yl)-5-(5-(1-isopropyl-4-(trifluoromethyl)-1H-imidazol-2-yl)pyridin-2-yl)-4,5,6,7-tetrahydro-1H-pyrazolo[4,3-c]pyridine]
IC50 [1]: 50 to 1000 nM
IC50 (MDA-MB-436 cells; Homo sapiens, 168 h): 50 to 1000 nM

IC50 [1]: < 50 nM
IC50 (MDA-MB-436 cells; Homo sapiens, 168 h): < 50 nM
SMILES: [2H]C([2H])([2H])n1nc(-c2c(OC)ncnc2C2CC2)c2c1CCN(c1ccc(-c3nc(C(F)(F)F)cn3C)cc1)C2 [Example 17, 3-(4-cyclopropyl-6-methoxypyrimidin-5-yl)-1-(methyl-d3)-5-(4-(1-methyl-4-(trifluoromethyl)-1H-imidazol-2-yl)phenyl)-4,5,6,7-tetrahydro-1H-pyrazolo[4,3-c]pyridine]

SMILES: COc1ncnc(C2CC2)c1-c1nn(C)c2c1CN(c1ccc(-c3nc(C(F)(F)F)cn3C)c(F)c1)CC2 [Example 8, 3-(4-cyclopropyl-6-methoxypyrimidin-5-yl)-5-(3-fluoro-4-(1-methyl-4-(trifluoromethyl)-1H-imidazol-2-yl)phenyl)-1-methyl-4,5,6,7-tetrahydro-1H-pyrazolo[4,3-c]pyridine]
IC50 [1]: < 50 nM
IC50 (MDA-MB-436 cells; Homo sapiens, 168 h): < 50 nM

SMILES: COc1ncnc(C2CC2)c1-c1nn(C)c2c1CN(c1ccc(-c3nc(C(F)(F)F)cn3C)cc1F)CC2 [Example 7, 3-(4-cyclopropyl-6-methoxypyrimidin-5-yl)-5-(2-fluoro-4-(1-methyl-4-(trifluoromethyl)-1H-imidazol-2-yl)phenyl)-1-methyl-4,5,6,7-tetrahydro-1H-pyrazolo[4,3-c]pyridine]
IC50 [1]: < 50 nM
IC50 (MDA-MB-436 cells; Homo sapiens, 168 h): < 50 nM

SMILES: Cc1ncnc(C2CC2)c1-c1nn(C)c2c1CN(c1ccc(-c3nc(C(F)(F)F)cn3C)cn1)CC2 [Example 13, 3-(4-cyclopropyl-6-methylpyrimidin-5-yl)-1-methyl-5-(5-(1-methyl-4-(trifluoromethyl)-1H-imidazol-2-yl)pyridin-2-yl)-4,5,6,7-tetrahydro-1H-pyrazolo[4,3-c]pyridine]
IC50 [1]: 50 to 1000 nM
IC50 (MDA-MB-436 cells; Homo sapiens, 168 h): 50 to 1000 nM

SMILES: CC(C)c1ncccc1-c1nn(C)c2c1CN(c1ccc(-c3nc(C(F)(F)F)cn3C)cc1)CC2 [Example 1, 3-(2-isopropylpyridin-3-yl)-1-methyl-5-(4-(1-methyl-4-(trifluoromethyl)-1H-imidazol-2-yl)phenyl)-4,5,6,7-tetrahydro-1H-pyrazolo[4,3-c]pyridine]
IC50 [1]: < 50 nM
IC50 (MDA-MB-436 cells; Homo sapiens, 168 h): < 50 nM

SMILES: COc1ncnc(C2CC2)c1-c1nn(C(F)F)c2c1CN(c1ccc(-c3nc(C(F)(F)F)cn3C)cn1)CC2 [Example 31, 3-(4-cyclopropyl-6-methoxypyrimidin-5-yl)-1-(difluoromethyl)-5-(5-(1-methyl-4-(trifluoromethyl)-1H-imidazol-2-yl)pyridin-2-yl)-4,5,6,7-tetrahydro-1H-pyrazolo[4,3-c]pyridine]
IC50 [1]: < 50 nM
IC50 (MDA-MB-436 cells; Homo sapiens, 168 h): 50 to 1000 nM

SMILES: COc1ncnc(C2CC2)c1-c1nn(C(F)F)c2c1CN(c1ccc(-c3nc(C(F)(F)F)cn3C)cc1)CC2 [Example 9, 3-(4-cyclopropyl-6-methoxypyrimidin-5-yl)-1-(difluoromethyl)-5-(4-(1-methyl-4-(trifluoromethyl)-1H-imidazol-2-yl)phenyl)-4,5,6,7-tetrahydro-1H-pyrazolo[4,3-c]pyridine]
IC50 [1]: < 50 nM
IC50 (MDA-MB-436 cells; Homo sapiens, 168 h): < 50 nM

SMILES: COc1ncnc(C2CC2)c1-c1nn(C(F)F)c2c1CN(c1ccc(-c3nc(C(F)(F)F)cn3C(C)C)cn1)CC2 [Example 32, 3-(4-cyclopropyl-6-methoxypyrimidin-5-yl)-1-(difluoromethyl)-5-(5-(1-isopropyl-4-(trifluoromethyl)-1H-imidazol-2-yl)pyridin-2-yl)-4,5,6,7-tetrahydro-1H-pyrazolo[4,3-c]pyridine]
IC50 [1]: < 50 nM
IC50 (MDA-MB-436 cells; Homo sapiens, 168 h): 50 to 1000 nM

SMILES: Cn1cc(C(F)(F)F)nc1-c1ccc(N2CCc3c(c(-c4cccnc4OC(F)F)nn3C)C2)cc1 [Example 24, 3-(2-(difluoromethoxy)pyridin-3-yl)-1-methyl-5-(4-(1-methyl-4-(trifluoromethyl)-1H-imidazol-2-yl)phenyl)-4,5,6,7-tetrahydro-1H-pyrazolo[4,3-c]pyridine]
IC50 [1]: < 50 nM
IC50 (MDA-MB-436 cells; Homo sapiens, 168 h): 50 to 1000 nM

SMILES: COc1ncnc(C2CC2)c1-c1nn(C)c2c1CN(c1cnc(-c3nc(C(F)(F)F)cn3C)nc1)CC2 [Example 26, 3-(4-cyclopropyl-6-methoxypyrimidin-5-yl)-1-methyl-5-(2-(1-methyl-4-(trifluoromethyl)-1H-imidazol-2-yl)pyrimidin-5-yl)-4,5,6,7-tetrahydro-1H-pyrazolo[4,3-c]pyridine]
IC50 [1]: 50 to 1000 nM
IC50 (MDA-MB-436 cells; Homo sapiens, 168 h): 50 to 1000 nM

IC50 [1]: < 50 nM
IC50 (MDA-MB-436 cells): 50 to 1000 nM
SMILES: COc1ncnc(C2CC2)c1-c1nn(C)c2c1CN(c1ccc(-n3nc(C(F)(F)F)cc3C)cn1)CC2 [Example 15, 3-(4-cyclopropyl-6-methoxypyrimidin-5-yl)-1-methyl-5-(5-(5-methyl-3-(trifluoromethyl)-1H-pyrazol-1-yl)pyridin-2-yl)-4,5,6,7-tetrahydro-1H-pyrazolo[4,3-c]pyridine]

SMILES: [2H]C([2H])([2H])n1nc(-c2c(OC)ncnc2C2CC2)c2c1CCN(c1ccc(-c3nc(C(F)(F)F)cn3C(C)C)cc1)C2 [Example 4, 3-(4-cyclopropyl-6-methoxypyrimidin-5-yl)-5-(4-(1-isopropyl-4-(trifluoromethyl)-1H-imidazol-2-yl)phenyl)-1-(methyl-d3)-4,5,6,7-tetrahydro-1H-pyrazolo[4,3-c]pyridine]
IC50 [1]: < 50 nM
IC50 (MDA-MB-436 cells; Homo sapiens, 168 h): < 50 nM

SMILES: [2H]C([2H])([2H])n1nc(-c2c(OC)ncnc2C2CC2)c2c1CCN(c1ccc(-c3nc(C(F)(F)F)cn3C)cn1)C2 [Example 18, 3-(4-cyclopropyl-6-methoxypyrimidin-5-yl)-1-(methyl-d3)-5-(5-(1-methyl-4-(trifluoromethyl)-1H-imidazol-2-yl)pyridin-2-yl)-4,5,6,7-tetrahydro-1H-pyrazolo[4,3-c]pyridine]
IC50 [1]: < 50 nM
IC50 (MDA-MB-436 cells; Homo sapiens, 168 h): < 50 nM

SMILES: COc1ncnc(C2CC2)c1-c1nn(C)c2c1CN(c1ccc(-c3nc(C(F)(F)F)cn3C)nn1)CC2 [Example 29, 3-(4-cyclopropyl-6-methoxypyrimidin-5-yl)-1-methyl-5-(6-(1-methyl-4-(trifluoromethyl)-1H-imidazol-2-yl)pyridazin-3-yl)-4,5,6,7-tetrahydro-1H-pyrazolo[4,3-c]pyridine]
IC50 [1]: 50 to 1000 nM
IC50 (MDA-MB-436 cells; Homo sapiens, 168 h): 50 to 1000 nM

SMILES: COc1ncnc(C2CC2)c1-c1nn(C)c2c1CN(c1ncc(-c3nc(C(F)(F)F)cn3C)cn1)CC2 [Example 27, 3-(4-cyclopropyl-6-methoxypyrimidin-5-yl)-1-methyl-5-(5-(1-methyl-4-(trifluoromethyl)-1H-imidazol-2-yl)pyrimidin-2-yl)-4,5,6,7-tetrahydro-1H-pyrazolo[4,3-c]pyridine]
IC50 [1]: < 50 nM
IC50 (MDA-MB-436 cells; Homo sapiens, 168 h): < 50 nM

SMILES: COc1ncnc(C2CC2)c1-c1nn(C)c2c1CN(c1ccc(-c3nc(C(F)(F)F)cn3C(C)C)cn1)CC2 [Example 10, 3-(4-cyclopropyl-6-methoxypyrimidin-5-yl)-5-(5-(1-isopropyl-4-(trifluoromethyl)-1H-imidazol-2-yl)pyridin-2-yl)-1-methyl-4,5,6,7-tetrahydro-1H-pyrazolo[4,3-c]pyridine]
IC50 [1]: < 50 nM
IC50 (MDA-MB-436 cells; Homo sapiens, 168 h): < 50 nM

SMILES: CCn1nc(-c2c(OC)ncnc2C2CC2)c2c1CCN(c1ccc(-c3nc(C(F)(F)F)cn3C)cn1)C2 [Example 16, 3-(4-cyclopropyl-6-methoxypyrimidin-5-yl)-1-ethyl-5-(5-(1-methyl-4-(trifluoromethyl)-1H-imidazol-2-yl)pyridin-2-yl)-4,5,6,7-tetrahydro-1H-pyrazolo[4,3-c]pyridine]
IC50 [1]: 50 to 1000 nM
IC50 (MDA-MB-436 cells; Homo sapiens, 168 h): 50 to 1000 nM

SMILES: CC(C)c1ncncc1-c1nn(C)c2c1CN(c1ccc(-c3nc(C(F)(F)F)cn3C)cc1)CC2 [Example 2, 3-(4-isopropylpyrimidin-5-yl)-1-methyl-5-(4-(1-methyl-4-(trifluoromethyl)-1H-imidazol-2-yl)phenyl)-4,5,6,7-tetrahydro-1H-pyrazolo[4,3-c]pyridine]
IC50 [1]: 50 to 1000 nM
IC50 (MDA-MB-436 cells; Homo sapiens, 168 h): 50 to 1000 nM

SMILES: COc1ncnc(C2CC2)c1-c1nn(C)c2c1CN(c1cnc(-c3nc(C(F)(F)F)cn3C)cn1)CC2 [Example 28, 3-(4-cyclopropyl-6-methoxypyrimidin-5-yl)-1-methyl-5-(5-(1-methyl-4-(trifluoromethyl)-1H-imidazol-2-yl)pyrazin-2-yl)-4,5,6,7-tetrahydro-1H-pyrazolo[4,3-c]pyridine]
IC50 [1]: < 50 nM
IC50 (MDA-MB-436 cells; Homo sapiens, 168 h): < 50 nM

SMILES: COc1ncnc(C2CC2)c1-c1nn(C)c2c1CN(c1ccc(-c3nc(C(F)(F)F)cn3C)nc1)CC2 [Example 6, 3-(4-cyclopropyl-6-methoxypyrimidin-5-yl)-1-methyl-5-(6-(1-methyl-4-(trifluoromethyl)-1H-imidazol-2-yl)pyridin-3-yl)-4,5,6,7-tetrahydro-1H-pyrazolo[4,3-c]pyridine]
IC50 [1]: < 50 nM
IC50 (MDA-MB-436 cells; Homo sapiens, 168 h): < 50 nM
